Results as given in patent US20250332158A1, “COMPOSITION FOR PROMOTING MITOPHAGY ACTIVITY COMPRISING ISOQUINOLINE DERIVATIVE COMPOUND AS ACTIVE INGREDIENT AND USE THEREOF” (ALTMEDICAL CO., LTD., priority 2022, published 2025).
“Also recorded” adds a separate entry of the source. Like-named read-outs stand apart in the source and are kept apart here.

How the values were obtained:
[1] = system: human normal lung cell line BEAS-2B; experiment: colony forming assay (cytotoxicity); type: cell-based
Procedure: A colony forming assay was performed to confirm the cytotoxicity of the novel isoquinoline derivatives of the present disclosure. Specifically, the isoquinoline derivatives were treated to the human normal lung cell line BEAS-2B for 24 hours, followed by culturing for 2 weeks to analyze the colony formed. As controls, a control group (con) that was not treated with anything and a positive control treated with CCCP, which induces mitophagy activity but also causes mitochondrial dysfunction and toxicity, were used.

[2] = system: human normal lung cell line BEAS-2B; experiment: mitophagy activity by mt-Keima (mitokeyma) fluorescent protein quantification, flow cytometry; type: cell-based; conditions: for mitophagy activity compared to the con group / concentration showing maximum mitophagy activity: BEAS-2B; for mitophagy activity compared to the con group: 20 µM, 24 hours, flow cytometer (FIG. 2A); for concentration showing maximum mitophagy activity: concentration series (FIG. 2B); for times higher mitophagy activity than CD1-012: from concentrations of maximum mitophagy activity
Source text: By utilizing these characteristics, mt-Keima can be expressed specifically in mitochondria, and by performing integrated analysis of the fluorescence signals at 458 nm and 561 nm, the fluorescence signal can be analyzed when mitochondria in a neutral environment (pH=7.4-7.8) are converted to an acidic environment (pH=4.5) by lysosomes delivered from mitophagy, allowing for quantitative measurement of mitophagy activity.
Specifically, a mitokeyma fluorescent protein quantification method, which allows for the quantitative measurement of mitophagy activity in living cells, was used. […] After treatment, the activity of mitophagy was measured using a flow cytometer. As a negative control, a control group (Control, con) without compound treatment was used, and as a positive control, CCCP (10 μM), which experimentally induces mitophagy activity, and CD1-012, a precursor of the compound of the present disclosure known to induce mitophagy activity, were used.

| SMILES | mitophagy activity compared to the con group [2] | other results |
| --- | --- | --- |
| N#CC(C#N)=NNc1cccc(Cl)c1 [CCCP, reference compound] |  | size and number of colonies (cytotoxicity) [1]: decrease in both the size and number of colonies |
| Oc1cc2c(cc1O)-c1cc3ccc(O)c(O)c3c[n+]1CC2 [CD1-271] | promote the activity of mitophagy |  |
| COc1ccc2c(c1OC)CN1CCc3cc4c(cc3C1=C2)OCO4 [CD1-363] | promote the activity of mitophagy |  |
| Oc1cc2c(cc1O)C1=Cc3ccc(O)c(O)c3CN1CC2 [CD1-367] | promote the activity of mitophagy | size and number of colonies (cytotoxicity) ([1]; BEAS-2B, treated 24 hours, cultured 2 weeks (FIG. 4)): except for CD1-367, did not exhibit cytotoxicity |
| C=CCc1c2[n+](cc3c(OC)c(OC)ccc13)CCc1cc3c(cc1-2)OCO3 [CD1-386] | best mitophagy activity promotion; also recorded: promote the activity of mitophagy | concentration showing maximum mitophagy activity [2]: 5 µM; times higher mitophagy activity than CD1-012 [2]: 4 times |
| COc1ccc2c(Cc3ccccc3)c3[n+](cc2c1OC)CCc1cc2c(cc1-3)OCO2 [CD1-404] | promote the activity of mitophagy |  |
| CCc1c2[n+](cc3c(OC)c(OC)ccc13)CCc1cc3c(cc1-2)OCO3 [CD1-409] | best mitophagy activity promotion; also recorded: promote the activity of mitophagy | concentration showing maximum mitophagy activity [2]: 10 µM; times higher mitophagy activity than CD1-012 [2]: 2 times |
